Ki data for 15 molecules are collected here from ChEMBL document CHEMBL5131458, “Design, synthesis and human carbonic anhydrase I, II, IX and XII inhibitory properties of 1,3-thiazole sulfonamides” (Bioorg Med Chem Lett, 2022).

The target of the experiment is Carbonic anhydrase 9 (Homo sapiens, UniProt Q16790). Put plainly: Inhibition of recombinant human carbonic anhydrase 9 incubated for 15 mins by phenol red based stopped-flow CO2 hydration assay.

The structures appear in SMILES notation.

For `CCCCCCOC(=O)c1csc(Nc2ccc(S(N)(=O)=O)cc2)n1`, the Ki (commonly a dissociation constant, usually derived from enzyme kinetics or from competition with a known ligand) is 70.6 nM.

For the molecule `CCCCCCCOC(=O)c1csc(Nc2ccc(S(N)(=O)=O)cc2)n1`, the Ki is 74.3 nM.

In the case of `NS(=O)(=O)c1ccc(Nc2nc(C(=O)OCCCCc3ccccc3)cs2)cc1`, the Ki amounted to 86.8 nM.

With `CC(CO)OC(=O)c1csc(Nc2ccc(S(N)(=O)=O)cc2)n1` (stereo not given), the Ki was determined as 37.9 nM.

For the molecule `NS(=O)(=O)c1ccc(Nc2nc(C(=O)OCCOc3ccccc3)cs2)cc1`, the Ki came out at 150 nM.

Consider `NS(=O)(=O)c1ccc(Nc2nc(C(=O)OCCO)cs2)cc1`, for which the Ki was 43.2 nM.

Take `CCCCOC(=O)c1csc(Nc2ccc(S(N)(=O)=O)cc2)n1`: the Ki came to 71.1 nM.

Turning to `CCCCCOC(=O)c1csc(Nc2ccc(S(N)(=O)=O)cc2)n1`, the Ki was found to be 72 nM.

On to `CC(O)COC(=O)c1csc(Nc2ccc(S(N)(=O)=O)cc2)n1` (stereo not given), for which the Ki worked out at 37.9 nM.

Regarding `CCOCCOC(=O)c1csc(Nc2ccc(S(N)(=O)=O)cc2)n1`, the Ki came to 51.2 nM.

Consider `COCCOC(=O)c1csc(Nc2ccc(S(N)(=O)=O)cc2)n1`, for which the Ki came to 35.1 nM.

Take `CCCCCCCCOC(=O)c1csc(Nc2ccc(S(N)(=O)=O)cc2)n1`: the Ki worked out at 78.9 nM.

For `CCCOC(=O)c1csc(Nc2ccc(S(N)(=O)=O)cc2)n1`, the Ki was found to be 49.9 nM.

Turning to `CC(C)OC(=O)c1csc(Nc2ccc(S(N)(=O)=O)cc2)n1`, the Ki was 90.3 nM.

On to `NS(=O)(=O)c1ccc(Nc2nc(C(=O)OCCOCCO)cs2)cc1`, for which the Ki was found to be 26.8 nM.
